We go through 18 compounds from patent publication US9234230B2, “Screening method and compounds for modulating telomerase activity” (The Wistar Institute, priority 2010, dated 2016).

The test has as its system TERT protein. As to the kind of experiment: Fluorescence polarization binding assay (inhibitory activity of selected Table 9 compounds). Details: species or system Tribolium castaneum. The settings on record: TERT-Chim21m complex 250 nM, cyanine 5-dCTP 10 nM, footnote: observed value corresponds to 50% of the actual inhibition value; for Inhibition at 5 μM (%)*: compound 5 μM; for Inhibition at 50 μM (%)*: compound 50 μM. How it is done:
The TERT protein was expressed and purified as described herein. Protein was concentrated to 4.72 mg ml-l using an AMICON 30K cutoff filter (Millipore) and stored at −80° C. for binding assays.
For the binding assay, TERT protein was diluted to a 500 nM concentration in a solution of 50 mM Tris-HCl, pH 7.5, 200 mM KCl, and 20% glycerol. A 1.2-fold molar excess of the Chim21m RNA-DNA hybrid (Integrated DNA Technologies), containing the template for telomere extension (5′-rCrUrG rArCrC rUrGrA rCTT CGG TCA GGT-3′; SEQ ID NO:19), was then added to these samples and kept on ice. The cyanine 5-dCTP (Perkin Elmer) for the binding study was made up to a 20 nM concentration in sterile, RNase, DNase free water with […].
Compound screens were carried out as 30.5 μl reactions in a 384-well, round bottom plate (Thermo). Fifteen μl of TERT-Chim21m complex was first added to each well. Then 0.5 μl of library compound (ChemBridge) was added to this solution. Finally, 15 μl of the nucleotide-MgCl2 sample was added, and the solution mixed to provide final concentrations of 250 nM protein-nucleic acid, 10 nM cyanine 5-dCTP, and […]. Final compound concentrations were 50 μM and 5 μM. All additions were completed using a Janus 96/384 Modular Dispensing Tool (Perkin Elmer), performed in triplicate, and equilibrated for 40 minutes. Fluorescence polarization was measured at λex=620 nm and λem=688 nm on an EnVision Xcite Multilabel plate reader (Perkin Elmer). Polarization was calculated using the standard equation: P=(V−H)/(V+H), where P denotes polarization, V denotes vertical emission intensity, and H denotes horizontal emission intensity.

For the compound `CC(C(=O)Nn1cnnc1)N1C(=O)c2ccccc2C1=O` (stereo not drawn) [2-(1,3-dioxo-1,3-dihydro-2H-isoindol-2-yl)-N-4H-1,2,4-triazol-4-ylpropanamide], the “Inhibition at 5 μM (%)*” value was found to be 4.74% and the “Inhibition at 50 μM (%)*” value was found to be 27.38%.
As for `O=C(Nn1cnnc1)c1cc(Br)ccc1Cl` [5-bromo-2-chloro-N-4H-1,2,4-triazol-4-ylbenzamide], the “Inhibition at 5 μM (%)*” value is 11.97% and the “Inhibition at 50 μM (%)*” value is reported as 30.04%.
Taken in the same sequence, the figures for `COc1cc(CNC2C3CC4CC(C3)CC2C4)cc(Cl)c1OCC(N)=O` (stereo not drawn) [2-{4-[(2-adamantylamino)methyl]-2-chloro-6-methoxyphenoxy}acetamide] were 13.73% and 35.18%.
On the same counts, the results for `CCOc1cc(CNCc2ccco2)cc(Br)c1OCC(N)=O.Cl` [2-(2-bromo-6-ethoxy-4-{[(2-furylmethyl)amino]methyl}phenoxy)acetamide hydrochloride] are 16.14% and 30.92%.
Taken in the same sequence, the figures for `NC(=O)CCN1C(=O)c2cccc3cccc(c23)C1=O` [3-(1,3-dioxo-1H-benzo[de]isoquinolin-2(3H)-yl)propanamide] were 18.11% and 36.58%.
For the compound `COc1cc(CNCc2ccccc2)cc(Cl)c1OCC(N)=O.Cl` [2-{4-[(benzylamino)methyl]-2-chloro-6-methoxyphenoxy}acetamide hydrochloride], the “Inhibition at 5 μM (%)*” value turned out to be 4.96% and the “Inhibition at 50 μM (%)*” value amounted to 29.96%.
As for `CC(O)CNC(=O)C(=O)Nc1ccc2c(c1)OCO2` (stereo not drawn) [N-1,3-benzodioxol-5-yl-N′-(2-hydroxypropyl)ethanediamide], the “Inhibition at 5 μM (%)*” value was 6.67% and the “Inhibition at 50 μM (%)*” value is recorded as 29.71%.
Taken in the same sequence, the figures for `O=C(NCCCO)C1CCCN(S(=O)(=O)c2ccc3ccccc3c2)C1` (stereo not drawn) [N-(3-hydroxypropyl)-1-(2-naphthylsulfonyl)-3-piperidinecarboxamide] were 13.44% and 30.42%.
Taken in the same sequence, the figures for `CCOC(=O)c1c(NC(=O)/C=C/C(N)=O)sc(C)c1C` [ethyl 2-[(4-amino-4-oxo-2-butenoyl)amino]-4,5-dimethyl-3-thiophenecarboxylate] were 19.23% and 39.41%.
Taken in the same sequence, the figures for `COc1cc(CNCc2cccs2)cc(Cl)c1OCC(N)=O.Cl` [2-(2-chloro-6-methoxy-4-{[(2-thienylmethyl)amino]methyl}phenoxy)acetamide hydrochloride] were 10.94% and 41.26%.
`COc1cc(CNCCc2ccccc2)cc(Br)c1OCC(N)=O` [2-(2-bromo-6-methoxy-4-{[(2-phenylethyl)amino]methyl}phenoxy)acetamide]: the “Inhibition at 5 μM (%)*” value is 12.21% and the “Inhibition at 50 μM (%)*” value stood at 27.65%.
Regarding `COc1cc(CNCCN2CCOCC2)cc(Br)c1OCC(N)=O.Cl.Cl` [2-[2-bromo-6-methoxy-4-({[2-(4-morpholinyl)ethyl]amino}methyl)phenoxy]acetamide dihydrochloride], the “Inhibition at 5 μM (%)*” value is reported as 18.27% and the “Inhibition at 50 μM (%)*” value came to 30.23%.
Taken in the same sequence, the figures for `COc1cc(CNc2ccc3[nH]c(=O)[nH]c3c2)cc(Cl)c1OCC(N)=O` [2-(2-chloro-6-methoxy-4-{[(2-oxo-2,3-dihydro-1H-benzimidazol-5-yl)amino]methyl}phenoxy)acetamide] were 15.94% and 29.33%.
On the same counts, the results for `CCOc1cc(CNCc2cccnc2)cc(Cl)c1OCC(N)=O.Cl` [2-(2-chloro-6-ethoxy-4-{[(3-pyridinylmethyl)amino]methyl}phenoxy)acetamide hydrochloride] are 14.87% and 38.78%.
On the same counts, the results for `CCOc1cc(CNCc2cccs2)cc(Cl)c1OCC(N)=O.Cl` [2-(2-chloro-6-ethoxy-4-{[(2-thienylmethyl)amino]methyl}phenoxy)acetamide hydrochloride] are 17.68% and 49.10%.
In the case of `COc1cc(CNCc2ccncc2)cc(Cl)c1OCC(N)=O.Cl` [2-(2-chloro-6-methoxy-4-{[(4-pyridinylmethyl)amino]methyl}phenoxy)acetamide hydrochloride], the “Inhibition at 5 μM (%)*” value was found to be 23.05% and the “Inhibition at 50 μM (%)*” value amounted to 45.56%.
On the same counts, the results for `CNCc1cc(Cl)c(OCC(N)=O)c(OC)c1.Cl` [2-{2-chloro-6-methoxy-4-[(methylamino)methyl]phenoxy}acetamide hydrochloride] are 17.00% and 31.30%.
Taken in the same sequence, the figures for `Cc1ccc(C(=O)Nn2cnnc2)c(Cl)c1` [2-chloro-4-methyl-N-4H-1,2,4-triazol-4-ylbenzamide] were 10.94% and 29.35%.
